{"source": "patent US10421774B2", "about": "(priority 2016, dated 2019)", "key": {"[1]": {"test_system": "T332S site directed mutant virus", "assay": "Anti-viral sensitivity of site directed mutants, T332S", "assay_type": "cell-based, HIV-1", "conditions": "genotype T332S, sensitivity relative to wt virus", "source_text": "(§1) Viruses. NLRepRluc virus contains the Renilla luciferase marker in place of the viral nef gene. The proviral plasmid pNLRepRluc was constructed at Bristol-Myers Squibb, starting from a proviral NL4-3 clone (B subtype) that was obtained from the NIH AIDS Research and Reference Reagent Program. The parental recombinant wild type (WT) virus (NLRepRlucP373S) was derived from NLRepRluc and contains the additional substitution of P373 for serine in Gag (within the SP1 spacer), the most common 373 variation in subtype B. Other recombinant viruses (A364V, V370A/ΔT371 and the “T3325 triple” (T332S/V362I+HIV-1 protease R41G)) were generated by site-directed mutagenesis of plasmid pNLRepRlucP373S to introduce those amino acid substitutions in Gag and protease. […] Titers of virus stocks were determined using a luciferase assay (Dual-Luciferase® Reporter Assay System, Promega, Milwaukee, Wis., USA) endpoint.\n(§2) Multiple cycle drug susceptibility assay. […] After 4-5 day incubation at 37° C./CO2, virus yields were determined by Renilla luciferase activity (Dual-Luciferase® Reporter Assay System, Promega). The endpoint luminescence was detected on a Wallac Trilux (PerkinElmer).\n(§3) Starting from wt virus, the HIV protease R41G substitution was detected in one of three in vitro selections for resistance to the MI compound above along with Gag V362I and Gag T332S. […]"}, "[2]": {"test_system": "T332S/V362I/Pr R41G virus", "assay": "microbe, parasite or virus in culture", "assay_type": "cell-based, HIV-1", "conditions": "for Fold wt: genotype T332S/V362I/Pr41G, sensitivity relative to wt virus; for pEC50: Human immunodeficiency virus 1, MT2, read-out: T332S/V362I/pr41G EC50", "summary_of_the_method": "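Multiple-cycle susceptibility: MT-2 cells, 10,000 per well, exposed to 3-fold compound dilutions at 1% DMSO after infection with luciferase-normalized inoculum. Virus: NL4-3-derived Renilla reporter (Gag P373S) with Gag T332S/V362I and protease R41G. Readout Renilla luciferase after 4–5 days, 37 °C.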"}, "[3]": {"test_system": "T332S/V362I site directed mutant virus", "assay": "Anti-viral sensitivity of site directed mutants, T332S/V362I", "assay_type": "cell-based, HIV-1", "conditions": "genotype T332S/V362I, sensitivity relative to wt virus", "source_text": "as §1, §2, §3"}, "[4]": {"test_system": "V362I site directed mutant virus", "assay": "Anti-viral sensitivity of site directed mutants, V362I", "assay_type": "cell-based, HIV-1", "conditions": "genotype V362I, sensitivity relative to wt virus", "source_text": "as §1, §2, §3"}, "[5]": {"test_system": "HIV protease R41G site directed mutant virus", "assay": "Anti-viral sensitivity of site directed mutants, HIV protease R41G", "assay_type": "cell-based, HIV-1", "conditions": "genotype HIV protease R41G, sensitivity relative to wt virus", "source_text": "as §1, §2, §3"}, "[6]": {"test_system": "V362I/prR41G site directed mutant virus", "assay": "Anti-viral sensitivity of site directed mutants, V362I/prR41G", "assay_type": "cell-based, HIV-1", "conditions": "genotype V362I/prR41G, sensitivity relative to wt virus", "source_text": "as §1, §2, §3"}, "[7]": {"test_system": "T332S/prR41G site directed mutant virus", "assay": "Anti-viral sensitivity of site directed mutants, T332S/prR41G", "assay_type": "cell-based, HIV-1", "conditions": "genotype T332S/prR41G, sensitivity relative to wt virus", "source_text": "as §1, §2, §3"}, "[8]": {"test_system": "HIV-1 strain NL4-4 virus", "assay": "Selection for resistance to the MI compound, EC50 for the starting virus", "assay_type": "cell-based", "conditions": "Human immunodeficiency virus 1, read-out: EC50 for this virus", "source_text": "T332sN362I/Pr R41G (N14.3, B Clade) virus′ was obtained as follows: Selection for resistance of HIV-1 strain […] virus with the HIV maturation inhibitor (MI) compound\nAt passage 8 virus was harvested and sequenced."}, "[9]": {"test_system": "viruses that contain T332S and HIV protease R41G combinations, with and without V362I", "assay": "Anti-viral sensitivity of site directed mutants, single and double combinations summarised in text", "assay_type": "cell-based, HIV-1", "conditions": "viruses with only a single change", "source_text": "Starting from wt virus, the HIV protease R41G substitution was detected in one of three in vitro selections for resistance to the MI compound above along with Gag V362I and Gag T332S. R41G is not a primary PI resistance substitution^i and is not present in the LANL database (2010). There is a single report of R41G associated with in vitro selection for resistance to an investigational PI^ii. […] A related change, R41K, is a common subtype B polymorph (27% of LANL database), and R41K may be involved in the emergence of protease resistance to an investigational protease inhibitor.^iii R41 is located in a loop proximal to the HIV-1 protease substrate binding site, and this change might act allosterically to facilitate closing the protease active site pocket over the substrate, thereby allowing catalysis. It might be that R41G alters the dynamics of the loop motion and the final positioning of the loop, which could cause the active site to better recognize the primary MI compound (above)-selected changes (V362I/T332S). An analysis of the V362I/T332S/Pr R41G substitutions, and their effects on MI compound susceptibility and viral growth, are described in the Table 1 below:\nViruses were constructed that contain T332S and HIV protease R41G combinations, with and without V362I.). […]"}, "[10]": {"test_system": "gag V370A/ΔT371 virus", "assay": "microbe, parasite or virus in culture", "assay_type": "cell-based, HIV-1", "conditions": "Human immunodeficiency virus 1, MT2, read-out: V370A/ΔT371 EC50", "summary_of_the_method": "(§4)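 Virus yield quantified by Renilla luciferase after 4–5 day culture at 37°C of MT-2 cells (10,000/well) with 3-fold serially diluted compound at 1% final DMSO. Reporter viruses were NL4-3 P373S derivatives bearing Gag A364V or V370A/ΔT371, inputs matched on luciferase endpoint.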"}, "[11]": {"test_system": "A364V site directed mutant virus", "assay": "microbe, parasite or virus in culture", "assay_type": "cell-based, HIV-1", "conditions": "Human immunodeficiency virus 1, MT2, read-out: A364V EC50", "summary_of_the_method": "as §4"}, "[12]": {"test_system": "NLRepRlucP373S recombinant wild type (WT) virus", "assay": "microbe, parasite or virus in culture", "assay_type": "cell-based, HIV-1", "conditions": "Human immunodeficiency virus 1, MT2, read-out: WT EC50", "summary_of_the_method": "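Multiple-cycle assay: luciferase-normalized NL4-3-derived NLRepRlucP373S (Renilla luciferase in place of nef) infects MT-2 cells, 10,000 cells/well, with 3-fold compound dilutions at 1% DMSO, 4-5 days, 37 °C. EC50 and EC90 fitted by median effect equation against Renilla luminescence, with residual signal under 3 μM NFV as background.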"}}, "note": "pEC50: −log10 of the molar value."}
{"smiles": "C=C(C)[C@@H]1CC[C@]2(C(=O)O)CC[C@]3(C)[C@H](CC[C@@H]4[C@@]5(C)CC[C@H](OC(=O)CC(C)(C)C(=O)O)C(C)(C)[C@@H]5CC[C@]43C)[C@@H]12", "note": "[BVM, 3β-(3-carboxy-3-methyl-butanoyloxy) lup-20(29)-en-28-oic acid]", "values": [{"measurement": "Fold wt", "setting": "[1]", "value": 23}, {"measurement": "Fold wt", "setting": "[2]", "value": 10}, {"measurement": "Fold wt", "setting": "[3]", "value": 3.1}, {"measurement": "Fold wt", "setting": "[4]", "value": 0.6}, {"measurement": "Fold wt", "setting": "[5]", "value": 1.9}, {"measurement": "Fold wt", "setting": "[6]", "value": 3.9}, {"measurement": "Fold wt", "setting": "[7]", "value": 4.2}]}
{"smiles": "C=C(C)[C@@H]1CC[C@]2(NCCN3CCS(=O)(=O)CC3)CC[C@]3(C)[C@H](CC[C@@H]4[C@@]5(C)CC=C(c6ccc(C(=O)O)cc6)C(C)(C)[C@@H]5CC[C@]43C)[C@@H]12", "note": "[MI compound]", "values": [{"measurement": "pEC50", "setting": "[8]", "value": 8.70}, {"measurement": "Fold wt", "setting": "[1]", "value": 1.9}, {"measurement": "Fold wt", "setting": "[2]", "value": 217}, {"measurement": "Fold wt", "setting": "[3]", "value": 5.7}, {"measurement": "Fold wt", "setting": "[4]", "value": 2.2}, {"measurement": "fold less sensitive", "setting": "[9]", "value": 2, "unit": "fold"}, {"measurement": "Fold wt", "setting": "[5]", "value": 1.5}, {"measurement": "Fold wt", "setting": "[6]", "value": 9.3}, {"measurement": "Fold wt", "setting": "[7]", "value": 6.1}]}
{"smiles": "C=C(C)[C@@H]1CC[C@]2(NCCN3CCS(=O)(=O)CC3)CC[C@]3(C)[C@H](CC[C@@H]4[C@@]5(C)CC=C(C6=CC[C@@](COc7cccc(F)n7)(C(=O)O)CC6)C(C)(C)[C@@H]5CC[C@]43C)[C@@H]12", "note": "[Example 29, (S)-4-((1R,3aS,5aR,5bR,7aR,11aS,11bR,13aR,13bR)-3a-((2-(1,1-dioxidothiomorpholino)ethyl)amino)-5a,5b,8,8,11a-pentamethyl-1-(prop-1-en-2-yl)-2,3,3a,4,5,5a,5b,6,7,7a,8,11,11a,11 b,12,13,13a,13b-octadecahydro-1H-cyclopenta[a]chrysen-9-yl)-1-(((6-fluoropyridin-2-yl)oxy)methyl)cyclohex-3-ene-1-carboxylic acid]", "values": [{"measurement": "pEC50", "setting": "[2]", "value": 7.68}, {"measurement": "pEC50", "setting": "[10]", "value": 7.68}, {"measurement": "pEC50", "setting": "[11]", "value": 8.30}, {"measurement": "pEC50", "setting": "[12]", "value": 8.30}]}
{"smiles": "C=C(C)[C@@H]1CC[C@]2(NCCN3CCS(=O)(=O)CC3)CC[C@]3(C)[C@H](CC[C@@H]4[C@@]5(C)CC=C(C6=CC[C@](COc7ncccc7Cl)(C(=O)O)CC6)C(C)(C)[C@@H]5CC[C@]43C)[C@@H]12", "note": "[Example 22]", "values": [{"measurement": "pEC50", "setting": "[2]", "value": 7.82}, {"measurement": "pEC50", "setting": "[10]", "value": 7.82}, {"measurement": "pEC50", "setting": "[11]", "value": 8.10}, {"measurement": "pEC50", "setting": "[12]", "value": 8.30}]}
